# Measured values from ChEMBL document CHEMBL5665443, “Enzyme Inhibitor Single Concentration assay results for EUbOPEN Chemogenomics Library” (2024).
# Where a SMILES comes first, the peptide text is derived from it.
# Columns and labels:
# Settings in all cases: Compound Concentration 10.0 uM, Hit No
# [1] = target: N-glycosylase/DNA lyase (Homo sapiens) (UniProt O15527);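 note: OGG1 cleavage of a quenched duplex DNA oligonucleotide, coupled to APE1 for strand incision, read as fluorescence at 594 nm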
# Description: Inhibition of OGG1 by quantifying inhibition of OGG1-mediated cleavage and dissociation of quenched duplex DNA oligonucleotides, measured as fluorescence at 594 nm. To generate a functional strand incision and increase turn-over this assay is coupled to APE1.
# [2] = target: T1, Adenine DNA glycosylase (Homo sapiens) (UniProt Q9UIF7);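 note: human MUTYH activity read as 594 nm fluorescence from cleavage and release of a quenched DNA duplex, coupled with APE1 for strand incision, lower signal meaning inhibition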
# T1 sequence (whole entry): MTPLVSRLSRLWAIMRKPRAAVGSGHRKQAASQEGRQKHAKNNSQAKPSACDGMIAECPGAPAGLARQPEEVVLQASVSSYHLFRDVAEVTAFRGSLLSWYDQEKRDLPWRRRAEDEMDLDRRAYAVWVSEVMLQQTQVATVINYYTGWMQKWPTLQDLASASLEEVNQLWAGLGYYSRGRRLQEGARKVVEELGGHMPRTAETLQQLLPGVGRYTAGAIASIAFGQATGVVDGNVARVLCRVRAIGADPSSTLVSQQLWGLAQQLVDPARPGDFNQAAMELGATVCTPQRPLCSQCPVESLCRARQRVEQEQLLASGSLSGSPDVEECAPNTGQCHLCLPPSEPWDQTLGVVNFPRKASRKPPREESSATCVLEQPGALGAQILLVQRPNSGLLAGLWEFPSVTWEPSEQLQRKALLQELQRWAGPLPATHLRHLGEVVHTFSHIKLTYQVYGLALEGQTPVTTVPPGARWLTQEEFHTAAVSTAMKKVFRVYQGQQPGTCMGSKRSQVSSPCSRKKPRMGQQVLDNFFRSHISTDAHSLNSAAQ
# Description: Inhibition of MUTYH by quantifying inhibition of MUTYH-mediated cleavage and dissociation of quenched duplex DNA oligonucleotides, measured as fluorescence at 594 nm. To generate a functional strand incision and increase turn-over this assay is coupled to APE1.
# [3] = target: Uracil-DNA glycosylase (Homo sapiens) (UniProt P13051);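 note: UNG excision on a quenched double-stranded DNA oligo probe, with APE1 added for strand incision and turnover, read as fluorescence at 594 nm as strands separate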
# Description: Inhibition of UNG by quantifying inhibition of UNG-mediated cleavage and dissociation of quenched duplex DNA oligonucleotides, measured as fluorescence at 594 nm. To generate a functional strand incision and increase turn-over this assay is coupled to APE1.
# [4] = target: G/T mismatch-specific thymine DNA glycosylase (Homo sapiens) (UniProt Q13569);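 note: human TDG cleavage of quenched duplex DNA oligonucleotides coupled to APE1, strand release read as fluorescence at 594 nm, inhibition of TDG activity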
# Description: Inhibition of TDG by quantifying inhibition of TDG-mediated cleavage and dissociation of quenched duplex DNA oligonucleotides, measured as fluorescence at 594 nm. To generate a functional strand incision and increase turn-over this assay is coupled to APE1.
# [5] = target: T2, Endonuclease 8-like 2 (Homo sapiens) (UniProt Q969S2);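 note: fluorescence at 594 nm reports NEIL2 cutting and release of a quenched double-stranded DNA oligo substrate, reduced signal read as inhibition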
# T2 sequence (whole entry): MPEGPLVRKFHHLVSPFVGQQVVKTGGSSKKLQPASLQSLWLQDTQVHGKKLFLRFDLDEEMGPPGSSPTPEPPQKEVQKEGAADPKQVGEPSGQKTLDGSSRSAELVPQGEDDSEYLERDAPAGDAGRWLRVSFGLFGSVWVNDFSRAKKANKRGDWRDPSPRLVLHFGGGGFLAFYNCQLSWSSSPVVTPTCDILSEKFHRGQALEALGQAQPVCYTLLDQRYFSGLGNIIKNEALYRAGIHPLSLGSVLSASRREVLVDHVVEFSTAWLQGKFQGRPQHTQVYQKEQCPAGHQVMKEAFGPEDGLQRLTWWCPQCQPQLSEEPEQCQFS
# Description: Inhibition of NEIL2 by quantifying inhibition of NEIL2-mediated cleavage and dissociation of quenched duplex DNA oligonucleotides, measured as fluorescence at 594 nm.
# [6] = target: Endonuclease 8-like 1 (Homo sapiens) (UniProt Q96FI4);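 note: fluorescence at 594 nm from quenched duplex DNA oligonucleotides released by NEIL1 cleavage and strand separation, reported as reduction of this enzyme activity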
# Description: Inhibition of NEIL1 by quantifying inhibition of NEIL1-mediated cleavage and dissociation of quenched duplex DNA oligonucleotides, measured as fluorescence at 594 nm.
# [7] = target: Methyl-CpG-binding domain protein 4 (Homo sapiens) (UniProt O95243);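 note: MBD4 activity read as fluorescence at 594 nm from cleavage and release of a quenched duplex DNA oligonucleotide, with APE1 coupled to incise the strand and raise turnover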
# Description: Inhibition of MBD4 by quantifying inhibition of MBD4-mediated cleavage and dissociation of quenched duplex DNA oligonucleotides, measured as fluorescence at 594 nm. To generate a functional strand incision and increase turn-over this assay is coupled to APE1.
# [8] = target: DNA-3-methyladenine glycosylase (Homo sapiens) (UniProt P29372);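 note: enzyme assay where MPG cuts a quenched duplex DNA oligonucleotide probe, paired with APE1 for strand incision and turnover, read as fluorescence at 594 nm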
# Description: Inhibition of MPG by quantifying inhibition of MPG-mediated cleavage and dissociation of quenched duplex DNA oligonucleotides, measured as fluorescence at 594 nm. To generate a functional strand incision and increase turn-over this assay is coupled to APE1.
# [9] = target: T3, Single-strand selective monofunctional uracil DNA glycosylase (Homo sapiens) (UniProt Q53HV7);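 note: enzymatic SMUG1 assay coupled with APE1, reading fluorescence at 594 nm released when a quenched double-stranded DNA oligonucleotide substrate is cleaved and separated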
# T3 sequence (whole entry): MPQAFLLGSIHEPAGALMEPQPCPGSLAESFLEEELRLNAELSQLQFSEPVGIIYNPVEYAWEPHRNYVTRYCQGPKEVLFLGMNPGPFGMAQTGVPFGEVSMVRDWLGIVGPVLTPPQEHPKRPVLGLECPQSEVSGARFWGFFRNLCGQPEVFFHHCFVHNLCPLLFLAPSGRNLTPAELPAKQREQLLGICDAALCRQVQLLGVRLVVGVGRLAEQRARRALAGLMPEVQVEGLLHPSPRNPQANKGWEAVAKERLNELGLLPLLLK
# Description: Inhibition of SMUG1 by quantifying inhibition of SMUG1-mediated cleavage and dissociation of quenched duplex DNA oligonucleotides, measured as fluorescence at 594 nm. To generate a functional strand incision and increase turn-over this assay is coupled to APE1.
# [10] = target: T4, Endonuclease III-like protein 1 (Homo sapiens) (UniProt P78549);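 note: enzyme assay tracking NTHL1 cutting and release of a quenched double-stranded DNA oligo substrate, read as fluorescence at 594 nm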
# T4 sequence (whole entry): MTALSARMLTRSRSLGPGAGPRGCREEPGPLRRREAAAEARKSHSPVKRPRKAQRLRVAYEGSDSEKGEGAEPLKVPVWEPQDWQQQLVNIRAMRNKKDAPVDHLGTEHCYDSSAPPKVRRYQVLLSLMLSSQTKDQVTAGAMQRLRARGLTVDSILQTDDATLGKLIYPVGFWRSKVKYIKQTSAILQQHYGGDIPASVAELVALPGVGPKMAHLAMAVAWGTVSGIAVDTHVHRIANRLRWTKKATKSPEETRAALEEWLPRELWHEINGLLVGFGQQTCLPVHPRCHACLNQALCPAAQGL
# Description: Inhibition of NTHL1 by quantifying inhibition of NTHL1-mediated cleavage and dissociation of quenched duplex DNA oligonucleotides, measured as fluorescence at 594 nm.
# Chain of Endonuclease 8-like 1 (Homo sapiens) (Q96FI4 whole entry, the tested form may be a part): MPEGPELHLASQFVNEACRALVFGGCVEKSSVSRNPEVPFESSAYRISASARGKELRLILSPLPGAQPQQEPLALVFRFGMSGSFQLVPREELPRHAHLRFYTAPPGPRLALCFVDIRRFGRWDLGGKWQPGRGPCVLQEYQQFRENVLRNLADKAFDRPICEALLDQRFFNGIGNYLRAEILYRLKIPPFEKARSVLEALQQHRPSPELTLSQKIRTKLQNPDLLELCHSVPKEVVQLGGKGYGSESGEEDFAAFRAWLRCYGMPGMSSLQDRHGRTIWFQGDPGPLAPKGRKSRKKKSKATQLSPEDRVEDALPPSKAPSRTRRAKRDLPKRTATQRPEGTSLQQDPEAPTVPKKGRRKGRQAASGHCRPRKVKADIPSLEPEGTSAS
# Chain of DNA-3-methyladenine glycosylase (Homo sapiens) (P29372 whole entry): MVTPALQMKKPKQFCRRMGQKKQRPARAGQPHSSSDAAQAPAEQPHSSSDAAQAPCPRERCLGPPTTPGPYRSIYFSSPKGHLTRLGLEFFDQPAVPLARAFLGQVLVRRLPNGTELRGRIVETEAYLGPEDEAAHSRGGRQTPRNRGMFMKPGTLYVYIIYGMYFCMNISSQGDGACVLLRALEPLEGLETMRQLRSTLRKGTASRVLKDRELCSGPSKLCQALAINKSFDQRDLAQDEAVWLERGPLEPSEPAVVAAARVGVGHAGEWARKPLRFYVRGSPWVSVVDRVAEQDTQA
# Chain of G/T mismatch-specific thymine DNA glycosylase (Homo sapiens) (Q13569 whole entry): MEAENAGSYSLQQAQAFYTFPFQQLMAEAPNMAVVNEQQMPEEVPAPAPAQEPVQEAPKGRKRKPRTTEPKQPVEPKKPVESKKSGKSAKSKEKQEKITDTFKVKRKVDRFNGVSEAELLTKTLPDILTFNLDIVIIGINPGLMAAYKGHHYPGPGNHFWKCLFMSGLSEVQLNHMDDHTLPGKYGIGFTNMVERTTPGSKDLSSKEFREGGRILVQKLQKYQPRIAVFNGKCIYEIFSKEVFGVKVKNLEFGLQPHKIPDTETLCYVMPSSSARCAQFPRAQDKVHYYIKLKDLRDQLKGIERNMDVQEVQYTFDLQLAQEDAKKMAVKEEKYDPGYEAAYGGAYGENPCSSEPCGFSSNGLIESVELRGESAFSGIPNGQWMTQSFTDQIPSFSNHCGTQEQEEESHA
# Chain of Methyl-CpG-binding domain protein 4 (Homo sapiens) (O95243 whole entry, the tested form may be a part): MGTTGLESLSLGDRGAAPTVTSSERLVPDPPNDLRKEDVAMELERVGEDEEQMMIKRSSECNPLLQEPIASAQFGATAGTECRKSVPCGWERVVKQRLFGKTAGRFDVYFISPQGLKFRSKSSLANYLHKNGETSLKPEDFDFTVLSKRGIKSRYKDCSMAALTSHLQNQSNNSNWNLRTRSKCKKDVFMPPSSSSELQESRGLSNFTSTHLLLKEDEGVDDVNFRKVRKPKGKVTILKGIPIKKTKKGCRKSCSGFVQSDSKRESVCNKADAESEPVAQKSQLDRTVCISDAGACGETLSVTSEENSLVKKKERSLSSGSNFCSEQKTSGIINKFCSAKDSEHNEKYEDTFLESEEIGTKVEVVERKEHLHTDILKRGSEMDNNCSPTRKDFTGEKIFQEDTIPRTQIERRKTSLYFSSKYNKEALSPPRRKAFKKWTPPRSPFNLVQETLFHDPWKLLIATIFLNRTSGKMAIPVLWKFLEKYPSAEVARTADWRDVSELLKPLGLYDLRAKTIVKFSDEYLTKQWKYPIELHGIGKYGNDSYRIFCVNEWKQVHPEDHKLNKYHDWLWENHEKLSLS
# Chain of Uracil-DNA glycosylase (Homo sapiens) (P13051 whole entry): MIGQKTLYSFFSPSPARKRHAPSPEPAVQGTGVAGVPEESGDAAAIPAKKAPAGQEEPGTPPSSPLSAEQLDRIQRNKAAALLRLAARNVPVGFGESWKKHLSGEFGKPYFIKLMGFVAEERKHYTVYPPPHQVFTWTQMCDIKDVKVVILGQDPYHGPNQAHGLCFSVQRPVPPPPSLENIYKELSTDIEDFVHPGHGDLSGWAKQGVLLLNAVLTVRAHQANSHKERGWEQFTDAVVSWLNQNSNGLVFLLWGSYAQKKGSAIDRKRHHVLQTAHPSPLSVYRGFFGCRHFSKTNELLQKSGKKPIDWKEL
# Chain of N-glycosylase/DNA lyase (Homo sapiens) (O15527 whole entry): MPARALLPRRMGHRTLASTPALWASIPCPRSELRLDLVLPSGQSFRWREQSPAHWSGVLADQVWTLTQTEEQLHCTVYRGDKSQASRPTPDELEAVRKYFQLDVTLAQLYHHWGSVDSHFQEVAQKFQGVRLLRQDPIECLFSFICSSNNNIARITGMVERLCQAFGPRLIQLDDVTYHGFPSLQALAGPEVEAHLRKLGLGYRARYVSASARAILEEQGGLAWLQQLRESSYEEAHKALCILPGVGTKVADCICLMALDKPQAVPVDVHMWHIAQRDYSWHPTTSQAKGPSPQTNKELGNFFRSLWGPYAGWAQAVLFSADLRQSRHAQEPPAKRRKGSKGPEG
Structure (SMILES),inhibition [1],inhibition [2],inhibition [3],inhibition [4],inhibition [5],inhibition [6],inhibition [7],inhibition [8],inhibition [9],inhibition [10]
FC(F)(F)c1ccccc1-c1cc(C(F)(F)F)c2[nH]c(C3=NOC4(CCCCC4)C3)nc2c1,-6.32%,-3.71%,-6.03%,6.11%,0.669%,0.00926%,2.91%,0.733%,-0.41%,-6.04%
O=C(O)CC1CCC2(CC1)CCN(c1cc(OC(F)(F)F)ccc1Cl)CC2,8.63%,19.4%,-5.76%,32.9%,7.5%,3.8%,25.2%,14.1%,4.67%,-1.74%
CCCOc1ccc2[nH]cc(C3=CCNCC3)c2n1,-9.55%,0.205%,-5.52%,11.1%,-8.25%,0.306%,-0.485%,-2.25%,-1.82%,7.17%
CCCn1c(=O)c2nc(C34CC5CC(CC3C5)C4)[nH]c2n(CCC)c1=O,-1.3%,6.8%,-9.84%,14.1%,12.2%,5.88%,16.5%,-7.5%,5%,-8.34%
COc1c(C(=O)/C=C/c2ccccc2)c(O)c(OC)c2occc12,0.34%,19.8%,-2.63%,11%,-3.15%,-0.435%,19.3%,7.88%,3.49%,20.4%
CC(/C=C1\SC(=S)N(CCCC(=O)Nc2ccc(C(=O)O)c(O)c2)C1=O)=C\c1ccccc1,25.4%,46.5%,-7.24%,53%,13.7%,11.6%,64%,34.2%,-1.92%,0.0916%
O=C(O)c1ccc(S(=O)(=O)N(Cc2ccc(OC(F)(F)F)cc2)c2ncc(C(F)(F)F)cc2Cl)cc1,15.6%,61.2%,2.72%,35%,14.4%,11.7%,39.2%,12.7%,2.42%,14.6%
NS(=O)(=O)c1c(Cl)ccc(NC(=O)Nc2cccc(Cl)c2Cl)c1O,6.41%,10.9%,-6.48%,16.5%,3.51%,-2.13%,14.2%,14.5%,8.49%,29%
Cc1ccc(C(C)(O)c2nc3ccccc3s2)c(C)c1 (stereo not given),2.68%,0.661%,-8.45%,14.6%,11%,7.8%,0.731%,10.5%,9.99%,8.52%
CC[C@H](C)[C@H](NC(=O)[C@H](Cc1ccc(O)cc1)NC(=O)[C@@H](NC(=O)[C@H](CCCNC(=N)N)NC(=O)[C@@H](N)CC(=O)O)C(C)C)C(=O)N[C@@H](Cc1cnc[nH]1)C(=O)N[C@H](C)C(=O)O (HELM PEPTIDE1{D.R.V.Y.I.H.[dA]}$$$$V2.0),-9.35%,-8.51%,-2.81%,1.59%,-1.88%,9.79%,6.33%,-4.39%,-8.77%,17.1%
O=C(NNC(=O)c1ccc(CNS(=O)(=O)c2ccc(F)c(Cl)c2)cc1)c1ccccc1,13.2%,22.1%,-0.108%,16.4%,-6.97%,3.71%,27%,9.45%,13.3%,4.7%
CC(C)C[C@@H](C(=O)N[C@@H](Cc1ccc(OCc2ccccc2)cc1)C(=O)NC(C)(C)C)N(C)Cc1ccc(C(C)(C)C)cc1,14.7%,5.01%,-6.44%,11.4%,-9.01%,2.38%,16.1%,6.32%,-4.08%,23.7%
O=c1ccc2c(OCCCCc3ccccc3)c3ccoc3cc2o1,0.716%,4.38%,-2.86%,5.01%,2.71%,4.31%,-4.82%,2.27%,0.0989%,7.17%
O=C(O)Cn1c(C(=O)Nc2nc(-c3ccccc3Cl)cs2)cc2ccccc21,6.47%,40.1%,-4.79%,39.6%,0.265%,-4.5%,38.1%,17.4%,5.06%,-9.07%
Nc1ncnc2c1ncn2[C@@H]1O[C@H](COP(=O)(O)OP(=O)(O)O)[C@@H](O)[C@H]1O,-9.66%,18.3%,-1.19%,26.4%,1.69%,8.75%,10.8%,-6.47%,-0.127%,11.3%
Cc1cc(C)cc(C(=O)N(C)[C@H](Cc2ccc(-c3ccccc3)cc2)C(=O)N[C@@H](Cc2c[nH]c3ccccc23)C(=O)O)c1,16.2%,76.9%,6.08%,48.4%,12.5%,-1.83%,60.3%,4.38%,4.62%,2.66%
Oc1cc2c(cc1O)CN(C(=S)NCCc1ccc(Cl)cc1)CCC2,-1.56%,73.8%,3.52%,46.1%,6.53%,12.2%,39.2%,26.6%,1.46%,3.04%
C[C@]1(C(=O)N(CCCC(=O)O)Cc2cccc(Cl)c2)CCN1C(=O)c1csc2ccccc12,3.32%,11.5%,-7.61%,25.5%,-3.73%,3.5%,-2.17%,-1.32%,7.04%,-9.8%
COc1cc(Br)c(S(=O)(=O)Nc2ccc(C(F)(F)F)c(O[C@@H]3CCN(C)C3)c2)cc1OC,-7.69%,-3.82%,-6.21%,-0.305%,-4.68%,-6.66%,-1.76%,-9.93%,-0.0706%,13.8%
Cc1cccc([C@H]2CC[C@@H](N3CCN(c4cccnc4)CC3)CC2)c1 (mixture of isomers),4.72%,35.8%,1.66%,47.1%,9.59%,1.34%,56.1%,39%,15.5%,-0.258%
